From ChEMBL document CHEMBL1255262, “Antimicrobial activity of omiganan pentahydrochloride against contemporary fungal pathogens responsible for catheter-associated infections” (2008)
Converted amounts (≈) assume the structure as drawn. Peptide text beside a SMILES is read from it.

Legend:
Format in all cases: functional
Nakaseomyces glabratus [1] = test: Antifungal activity against Candida glabrata after 48 hrs by broth microdilution
Pichia kudriavzevii [2] = test: Antifungal activity against Candida krusei after 48 hrs by broth microdilution
Candida parapsilosis [3] = test: Antifungal activity against Candida parapsilosis after 48 hrs by broth microdilution
Candida tropicalis [4] = test: Antifungal activity against Candida tropicalis after 48 hrs by broth microdilution
Aspergillus sp. = test: Antifungal activity against Aspergillus sp. after 48 hrs by broth microdilution
Curvularia = test: Antifungal activity against Curvularia species after 48 hrs by broth microdilution
Fusarium sp. = test: Antifungal activity against Fusarium sp. after 48 hrs by broth microdilution
Paecilomyces variotii = test: Antifungal activity against Paecilomyces variotii after 48 hrs by broth microdilution
Talaromyces marneffei = test: Antifungal activity against Penicillium marneffei after 48 hrs by broth microdilution
Penicillium sp. = test: Antifungal activity against Penicillium sp. after 48 hrs by broth microdilution
Candida albicans [5] = test: Antifungal activity against Candida albicans assessed as susceptible isolates after 48 hrs by broth microdilution
Nakaseomyces glabratus [6] = test: Antifungal activity against Candida glabrata assessed as susceptible isolates after 48 hrs by broth microdilution
Pichia kudriavzevii [7] = test: Antifungal activity against Candida krusei assessed as susceptible isolates after 48 hrs by broth microdilution
Candida parapsilosis [8] = test: Antifungal activity against Candida parapsilosis assessed as susceptible isolates after 48 hrs by broth microdilution
Candida tropicalis [9] = test: Antifungal activity against Candida tropicalis assessed as susceptible isolates after 48 hrs by broth microdilution
Candida albicans [10] = test: Antifungal activity against Candida albicans assessed as resistant isolates after 48 hrs by broth microdilution
Nakaseomyces glabratus [11] = test: Antifungal activity against Candida glabrata assessed as resistant isolates after 48 hrs by broth microdilution
Pichia kudriavzevii [12] = test: Antifungal activity against Candida krusei assessed as resistant isolates after 48 hrs by broth microdilution
Candida parapsilosis [13] = test: Antifungal activity against Candida parapsilosis assessed as resistant isolates after 48 hrs by broth microdilution
Candida tropicalis [14] = test: Antifungal activity against Candida tropicalis assessed as resistant isolates after 48 hrs by broth microdilution
Candida albicans [15] = test: Antifungal activity against Candida albicans after 48 hrs by broth microdilution

Compound	MIC50 (Nakaseomyces glabratus [1])	MIC90 (Nakaseomyces glabratus [1])	MIC50 (Pichia kudriavzevii [2])	MIC90 (Pichia kudriavzevii [2])	MIC50 (Candida tropicalis [4])	MIC90 (Candida tropicalis [4])	MIC50 (Aspergillus sp.)	MIC90 (Aspergillus sp.)	MIC50 (Curvularia)	MIC90 (Curvularia)	MIC50 (Fusarium sp.)	MIC90 (Fusarium sp.)	MIC50 (Paecilomyces variotii)	MIC90 (Paecilomyces variotii)	MIC50 (Talaromyces marneffei)	MIC90 (Talaromyces marneffei)	MIC50 (Penicillium sp.)	MIC90 (Penicillium sp.)	MIC50 (Candida albicans [15])	MIC90 (Candida albicans [15])	further results
CCC(C)n1ncn(-c2ccc(N3CCN(c4ccc(OCC5COC(Cn6cncn6)(c6ccc(Cl)cc6Cl)O5)cc4)CC3)cc2)c1=O (centres undefined) [ITRACONAZOLE]	0.12 µg/mL (≈ 0.17 µM)	0.5 µg/mL (≈ 0.709 µM)	0.5 µg/mL (≈ 0.709 µM)	0.5 µg/mL (≈ 0.709 µM)	0.03 µg/mL (≈ 0.0425 µM)	0.12 µg/mL (≈ 0.17 µM)	0.03 µg/mL (≈ 0.0425 µM)	0.06 µg/mL (≈ 0.085 µM)	0.06 µg/mL (≈ 0.085 µM)	> 16 µg/mL	0.06 µg/mL (≈ 0.085 µM)	> 16 µg/mL	0.06 µg/mL (≈ 0.085 µM)	> 16 µg/mL	0.06 µg/mL (≈ 0.085 µM)	> 16 µg/mL	0.06 µg/mL (≈ 0.085 µM)	> 16 µg/mL	0.12 µg/mL (≈ 0.17 µM)	16 µg/mL (≈ 22.7 µM)	MIC50 (Candida parapsilosis [3]; Lodderomyces parapsilosis): 0.06 µg/mL (≈ 0.085 µM); MIC90 (Candida parapsilosis [3]; Lodderomyces parapsilosis): 0.25 µg/mL (≈ 0.354 µM); Activity (Candida albicans [5]): 50%; Activity (Nakaseomyces glabratus [6]): 72.7%; Activity (Pichia kudriavzevii [7]): 10%; Activity (Candida parapsilosis [8]): 63.6%; Activity (Candida tropicalis [9]): 100%; Activity (Candida albicans [10]): 48.1%; Activity (Nakaseomyces glabratus [11]): 4.6%; Activity (Pichia kudriavzevii [12]): 0%; Activity (Candida parapsilosis [13]): 0%; Activity (Candida tropicalis [14]): 0%
CC[C@H](C)[C@H](N)C(=O)N[C@@H](CC(C)C)C(=O)N[C@@H](CCCNC(=N)N)C(=O)N[C@@H](Cc1c[nH]c2ccccc12)C(=O)N1CCC[C@H]1C(=O)N[C@@H](Cc1c[nH]c2ccccc12)C(=O)N[C@@H](Cc1c[nH]c2ccccc12)C(=O)N1CCC[C@H]1C(=O)N[C@@H](Cc1c[nH]c2ccccc12)C(=O)N[C@@H](CCCNC(=N)N)C(=O)N[C@@H](CCCNC(=N)N)C(=O)N[C@@H](CCCCN)C(N)=O.Cl.Cl.Cl.Cl.Cl [OMIGANAN PENTAHYDROCHLORIDE] (H-ILRWPWWPWRRK-NH2)	256 µg/mL	256 µg/mL	64 µg/mL	128 µg/mL	32 µg/mL	32 µg/mL	128 µg/mL	1020 µg/mL	64 µg/mL	256 µg/mL	64 µg/mL	256 µg/mL	64 µg/mL	256 µg/mL	64 µg/mL	256 µg/mL	64 µg/mL	256 µg/mL	64 µg/mL	128 µg/mL	MIC50 (Candida parapsilosis [3]; Lodderomyces parapsilosis): 128 µg/mL; MIC90 (Candida parapsilosis [3]; Lodderomyces parapsilosis): 256 µg/mL
C[C@@H](c1ncncc1F)[C@](O)(Cn1cncn1)c1ccc(F)cc1F [VORICONAZOLE]	0.06 µg/mL (≈ 0.172 µM)	2 µg/mL (≈ 5.73 µM)	0.25 µg/mL (≈ 0.716 µM)	0.5 µg/mL (≈ 1.43 µM)	0.015 µg/mL (≈ 0.0429 µM)	16 µg/mL (≈ 45.8 µM)	0.25 µg/mL (≈ 0.716 µM)	0.25 µg/mL (≈ 0.716 µM)	0.25 µg/mL (≈ 0.716 µM)	2 µg/mL (≈ 5.73 µM)	0.25 µg/mL (≈ 0.716 µM)	2 µg/mL (≈ 5.73 µM)	0.25 µg/mL (≈ 0.716 µM)	2 µg/mL (≈ 5.73 µM)	0.25 µg/mL (≈ 0.716 µM)	2 µg/mL (≈ 5.73 µM)	0.25 µg/mL (≈ 0.716 µM)	2 µg/mL (≈ 5.73 µM)	0.03 µg/mL (≈ 0.0859 µM)	> 16 µg/mL	MIC50 (Candida parapsilosis [3]; Lodderomyces parapsilosis): 0.015 µg/mL (≈ 0.0429 µM); MIC90 (Candida parapsilosis [3]; Lodderomyces parapsilosis): 0.12 µg/mL (≈ 0.344 µM); MIC (Candida tropicalis [4]): 0.015 µg/mL (≈ 0.0429 µM); Activity (Candida albicans [5]): 75%; Activity (Nakaseomyces glabratus [6]): 86.4%; Activity (Pichia kudriavzevii [7]): 100%; Activity (Candida parapsilosis [8]): 100%; Activity (Candida tropicalis [9]): 72.7%; Activity (Candida albicans [10]): 25%; Activity (Nakaseomyces glabratus [11]): 0%; Activity (Pichia kudriavzevii [12]): 0%; Activity (Candida parapsilosis [13]): 0%; Activity (Candida tropicalis [14]): 27.3%
NYSTATIN	8 µg/mL	8 µg/mL	8 µg/mL	8 µg/mL	8 µg/mL	8 µg/mL	16 µg/mL	16 µg/mL	8 µg/mL	16 µg/mL	8 µg/mL	16 µg/mL	8 µg/mL	16 µg/mL	8 µg/mL	16 µg/mL	8 µg/mL	16 µg/mL	8 µg/mL	8 µg/mL	MIC50 (Candida parapsilosis [3]): 8 µg/mL; MIC90 (Candida parapsilosis [3]): 8 µg/mL
